Data taken from US6399614B1, “1-(N-phenylaminoalkyl)piperazine derivatives substituted at position 2 of the phenyl ring” (Recordati S.A. Chemical and Pharmaceutical Company, priority 1997, dated 2002).
Where two headings read alike, the source gives them in different places.

Legend:
[1] = test system: rhythmic bladder voiding contractions; assay: Volume-induced rhythmic bladder voiding contractions in anaesthetized rats; format: in vivo, rat; conditions: for ED (10 min disappearance of contractions) / ED50: Rattus norvegicus; for ED (10 min disappearance of contractions): read-out: ED10 min; for ED50: read-out: ED50 (frequency); for pharmacological activity on bladder voiding contractions (in words): nitro group at position 3 or 4 of the aniline ring
Method: Female Sprague Dawley rats weighing 225-275 g (Crl: CDo BR, Charles River Italia) were used. The animals were housed with free access to food and water and were maintained on a forced 12 h alternating light-dark cycle at 22-24° C. for at least one week, except during the experiment. The activity on the rhythmic bladder voiding contractions was evaluated according to the method of Dray (J. Pharmacol. Methods, 13:157, 1985), with some modifications as in Guarneri (Pharmacol. Res., 27:173, 1993). Briefly, rats were anesthetized by subcutaneous injection of 1.25 g/kg (5 ml/kg) urethane, after which the urinary bladder was catheterized via the urethra using PE 50 polyethylene tubing filled with physiological saline. The catheter was tied in place with a ligature around the external urethral orifice and was connected with conventional pressure transducers (Statham P23 ID/P23 XL). […] The bladder was then filled via the recording catheter by incremental volumes of warm (37° C.) saline until reflex bladder voiding contractions occurred (usually 0.8-1.5 ml). For intravenous (i.v.) injection of bioactive compounds, PE 50 polyethylene tubing filled with physiological saline was inserted into the jugular vein. From the cystometrogram, the number of contractions recorded 15 min before (basal values) and after treatment, as well as the mean amplitude of these contractions (mean height of the peaks in mmHg) was evaluated.
Since most compounds produced an effect that was relatively rapid in onset and led to a complete cessation of bladder contractions, bioactivity was conveniently estimated by measuring the duration of bladder quiescence (i.e., the duration of time during which no contractions occurred). The number of animals tested showing a reduction in the number of contractions >30% of that observed in the basal period was also recorded.
Also computed in this manner were extrapolated doses which induced a reduction of the number of contractions of greater than 30% in 50% of treated rats (ED50, frequency) by the method of Bliss (Bliss C. I., Quart. J. Pharm. Pharmacol. 11, 192-216, 1938). After the suppressive effects of drug injection wore off, the height of the contractile peaks was compared with the height of the peaks previously recorded after the control intravenous administration of vehicle. The potency of the tested compounds (ED50 value: the extrapolated doses inducing a 30% reduction of amplitude of the contractions in 50% of treated rats) was evaluated on a quantal basis by the method of Bliss (Bliss C. I., Quart. J. Pharm. Pharmacol. 11, 192-216, 1938).

urinary bladder = assay: Cystometric parameters (cystometrogram) in conscious rats; format: in vivo, rat; conditions: for BVC after treatment / MP after treatment: mean ± S.E.; for change in vivo at 0.3 mg/kg / change in vivo at 1 mg/kg: Rattus norvegicus, iv, 0.25 h, after vs before; for change in vivo at 0.3 mg/kg: i.v. 300 μg/kg; for change in vivo at 1 mg/kg: i.v. 1000 μg/kg
Method: Male Sprague Dawley rats (Crl: CDo BR) weighing 250-350 g were used. The animals were housed with free access to food and water and maintained on a forced 12 h alternating light-dark cycle at 22-24° C. for at least one week, except during performance of the experiment. To quantify urodynamic parameters in conscious rats, cystometrographic studies were performed using procedures previously described (Guarneri et al., Pharmacol. Res., 24:175, 1991). […] An approximately 10 mm long midline incision was made in the shaved and cleaned abdominal wall. The urinary bladder was gently freed from adhering tissues, emptied, and then cannulated, via an incision at the dome, with a polyethylene cannula (Portex PP30), which was permanently sutured with silk thread. The cannula was exteriorized through a subcutaneous tunnel in the retroscapular area, where it was connected with a plastic adapter to avoid the risk of removal by the animal. For intravenous (i.v.) injection of test compounds, a PE 50 polyethylene tubing filled with physiological saline was inserted into the jugular vein and exteriorized in the retroscapular area. The rats were utilized exclusively one day after implantation. On the day of the experiment, the rats were placed in Bollman's cages, after a stabilization period of 20 min, and the free tip of the bladder catheter was connected through a T-shaped tube to a pressure transducer (Bentley T 800/Marb P 82) and to a peristaltic pump (Gilson minipuls 2) for a continuous infusion, at the constant rate of 0.1 ml/min, of saline solution into the urinary bladder. The intraluminal pressure signal during infusion was continuously recorded on a polygraph (Battaglia Rangoni KO 380 with ADCl/T amplifier).
Two urodynamic parameters were evaluated: bladder volume capacity (BVC) and micturition pressure (MP). BVC (in ml) is defined as the minimum volume infused after which detrusor contraction (followed by micturition) occurs. MP (in mm Hg) is defined as the maximal intravesical pressure induced by the contraction of detrusor during micturition. Basal BVC and MP values were calculated as the means of the first two recorded cystometrograms. At this point in the assay, the infusion was interrupted and the test compounds were administered. Fifteen minutes after intravenous administration two additional cystometrograms were recorded in each animal and the mean values of the two cystometrographic parameters were calculated. The statistical significance of the differences in urodynamic parameter values was evaluated by Student's t test for paired data.

[2] = target: T1, human 5-HT1A serotonergic receptor (Homo sapiens, UniProt P08908); assay: Radioreceptor binding, recombinant human 5-HT1A receptors ([3H]8-OH-DPAT, HeLa membranes); conditions: recombinant human receptor, [3H]8-OH-DPAT; Ki from IC50 by Cheng & Prusoff; read-out: Binding affinity for the 5-HT1A receptor, Ki
T1 construct: expressed in transfected cells; host or cells: HeLa
T1 sequence (P08908 1-422): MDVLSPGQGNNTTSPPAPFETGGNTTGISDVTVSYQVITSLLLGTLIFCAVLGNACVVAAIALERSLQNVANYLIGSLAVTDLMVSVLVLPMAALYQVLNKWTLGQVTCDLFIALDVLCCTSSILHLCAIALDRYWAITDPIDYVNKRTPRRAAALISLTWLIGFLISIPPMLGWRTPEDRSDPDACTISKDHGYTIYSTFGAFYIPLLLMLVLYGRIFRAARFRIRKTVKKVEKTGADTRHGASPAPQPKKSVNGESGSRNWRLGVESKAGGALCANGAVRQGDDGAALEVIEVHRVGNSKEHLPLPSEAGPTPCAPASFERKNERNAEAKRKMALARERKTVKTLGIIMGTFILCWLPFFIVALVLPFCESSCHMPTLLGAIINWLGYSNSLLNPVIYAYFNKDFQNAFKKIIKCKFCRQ
Method: Genomic clone G-21 coding for the human 5-HT1A serotonergic receptor is stably transfected in a human cell line (HeLa). HeLa cells were grown as monolayers in Dulbecco's modified Eagle's medium (DMEM), supplemented with 10% fetal calf serum and gentamicin ([…]), 5% CO2 at 37° C. Cells were detached from the growth flask at 95% confluence by a cell scraper and were lysed in ice-cold 5 mM Tris and 5 mM EDTA buffer (pH 7.4). Homogenates were centrifuged at 40000×g×20 min and pellets were resuspended in a small volume of ice-cold 5 mM Tris and 5 mM EDTA buffer (pH 7.4) and immediately frozen and stored at −70° C. until use. On the day of experiment, cell membranes were resuspended in binding buffer: 50 mM Tris HCl (pH 7.4), 2.5 mM MgCl2, 10 μM pargiline (Fargin et al., Nature 335, 358-360, 1988). Membranes were incubated in a final volume of 1 ml for 30 min at 30° C. with 0.2-1 nM [3H]8-OH-DPAT, in absence or presence of competing drugs; non-specific binding was determined in the presence of 10 μM 5-HT. The incubation was stopped by addition of ice-cold Tris-HCl buffer and rapid filtration through 0.2% polyethyleneimine pretreated Whatman GF/B or Schleicher & Schuell GF52 filters.
The inhibition of specific binding of the radioligands by the tested drugs was analyzed to estimate the IC50 value by using the non-linear curve-fitting program Allfit (De Lean et al., Am. J. Physiol. 235, E97-E102, 1978). The IC50 value was converted to an affinity constant (Ki) by the equation of Cheng & Prusoff (Cheng, Y. C.; Prusoff, W. H. Biochem. Pharmacol. 22, 3099-3108, 1973).

[3] = extrapolated dose inducing 10 min of disappearance of the contractions, intravenous, anaesthetized rats
[4] = extrapolated dose inducing a reduction of the number of contractions >30% in 50% of treated rats, intravenous

Row | Ki [2] | Compound | ED (10 min disappearance of contractions) [1, 3] | ED50 [1, 4] | other results
1 |  | COc1ccccc1N1CCN(CCN(C(=O)C2CCCCC2)c2ccc([N+](=O)[O-])cc2)CC1 [Compound C, 1-[N-(4-nitrophenyl)-N-cyclohexylcarbonyl-2-aminoethyl]-4-(2-methoxyphenyl)piperazine, reference compound] | > 1 mg/kg | > 1 mg/kg | pharmacological activity on bladder voiding contractions (in words) [1]: pharmacological activity was abolished
2 |  | COc1ccccc1N1CCN(CCNc2ccccc2[N+](=O)[O-])CC1 [Example 1, 1-[N-(2-nitrophenyl)-2-aminoethyl]-4-(2-methoxyphenyl)piperazine] | 0.192 mg/kg | 0.055 mg/kg | 
3 |  | COc1ccccc1N1CCN(CCNc2ccc([N+](=O)[O-])cc2)CC1 [Compound E, 1-[N-(4-nitrophenyl)-2-aminoethyl]-4-(2-methoxyphenyl)piperazine, reference compound] | > 1 mg/kg | > 1 mg/kg | 
4 |  | COc1ccccc1N1CCN(CCNc2ccccc2)CC1 [Compound AA, 1-(N-phenyl-2-aminoethyl)-4-(2-methoxyphenyl)piperazine, reference compound] | 0.663 mg/kg | 0.244 mg/kg | 
5 | 0.36 nM | COc1ccccc1N1CCN(CCN(C(=O)C2CCCCC2)c2ccccc2I)CC1 [Example 8] |  |  | BVC after treatment (urinary bladder; 15 min after i.v. 300 μg/kg): 0.71 ± 0.05 mL; MP after treatment (urinary bladder; 15 min after i.v. 300 μg/kg): 98.3 ± 17.2 mmHg; BVC after treatment (urinary bladder; 15 min after i.v. 1000 μg/kg): 0.88 ± 0.12 mL; MP after treatment (urinary bladder; 15 min after i.v. 1000 μg/kg): 64.8 ± 10.5 mmHg; change in vivo at 0.3 mg/kg (urinary bladder; read-out: BVC % of change): 21%; change in vivo at 0.3 mg/kg (urinary bladder; read-out: MP % of change): -15%; change in vivo at 1 mg/kg (urinary bladder; read-out: BVC % of change): 35%; change in vivo at 1 mg/kg (urinary bladder; read-out: MP % of change): -20%
6 |  | COc1ccccc1N1CCN(CCNc2cccc([N+](=O)[O-])c2)CC1 [Compound D, 1-[N-(3-nitrophenyl)-2-aminoethyl]-4-(2-methoxyphenyl)piperazine, reference compound] | > 1 mg/kg | > 1 mg/kg | 
7 |  | COc1ccccc1N1CCN(CCN(C(=O)C2CCCCC2)c2cccc([N+](=O)[O-])c2)CC1 [Compound B, 1-[N-(3-nitrophenyl)-N-cyclohexylcarbonyl-2-aminoethyl]-4-(2-methoxypheny)piperazine, reference compound] |  |  | ED10 min [1, 3]: >1 mg/kg; ED50 (frequency) [1, 4]: >1 mg/kg; pharmacological activity on bladder voiding contractions (in words) [1]: pharmacological activity was abolished
8 | 21.2 nM | COc1ccccc1N1CCN(CCN(C(=O)c2cncs2)c2ccccc2[N+](=O)[O-])CC1 [Example 73] |  |  | 
9 | 1.31 nM | COc1ccc(Br)c(CN2CCN(CCN(C(=O)C3CCCCC3)c3ccccc3C#N)CC2)c1 [Example 83, 1-[N-(2-cyanophenyl)-N-cyclohexylcarbonyl-2-aminoethyl]-4-(2-bromo-5-methoxybenzyl)piperazine] |  |  | 
10 | 2.72 nM | COc1ccccc1N1CCN(CCN(C(=O)C2CCCCC2)c2ccccc2C(=O)N(C)C)CC1 [Example 21, 1-[N-(2-dimethylaminocarbonylphenyl)-N-cyclohexylcarbonyl-2-aminoethyl]-4-(2-methoxyphenyl)piperazine.] |  |  | 
11 | 2.02 nM | COc1ccc(Br)c(CN2CCN(CCNc3ccccc3OC(F)(F)F)CC2)c1 [Example 74, 1-[N-(2-trifluoromethoxyphenyl)-2-aminoethyl]-4-(2-bromo-5-methoxybenzyl)piperazine] |  |  | 
12 | 10.3 nM | COc1ccccc1N1CCN(CCNc2ccccc2OC(F)(F)F)CC1 [Example 3, 1-[N-(2-trifluoromethoxyphenyl)-2-aminoethyl]-4-(2-methoxyphenyl)piperazine] |  |  | 
13 | 0.45 nM | COc1ccccc1N1CCN(CCN(C(=O)C2CCCCC2)c2ccccc2Oc2ccccc2)CC1 [Example 6, 1-[N-(2-phenoxyphenyl)-N-cyclohexylcarbonyl-2-aminoethyl]-4-(2-methoxyphenyl)piperazine] |  |  | 
14 | 6.2 nM | O=C(C1CCCCC1)N(CCN1CCN(Cc2cc(Cl)ccc2Cl)CC1)c1ccccc1[N+](=O)[O-] [Example 15, 1-[N-(2-nitrophenyl)-N-cyclohexylcarbonyl-2-aminoethyl]-4-(2,5-dichlorobenzyl)piperazine] |  |  | 

Row | Compound | Ki [2] | ED (10 min disappearance of contractions) [1, 3] | ED50 [1, 4] | other results
15 | COc1ccccc1N1CCN(CCNc2ccccc2C(F)(F)F)CC1 [Example 22, 1-[N-(2-trifluoromethylphenyl)-2-aminoethyl]-4-(2-methoxyphenyl)piperazine] | 18.2 nM |  |  | 
